Source: patent US10538497B2, “Compounds as indoleamine 2,3-dioxygenase inhibitors” (Merck Sharp & Dohme Corp., priority 2015, dated 2020)

Tests used:
IDO1 [1] = biological target: T1, IDO1 (Homo sapiens (Human), UniProt P14902); experiment: IDO1 Enzyme Assay; conditions: HIS-tagged recombinant IDO1, 40 nM
IDO1 [2] = biological target: T1, IDO1; experiment: IDO1 Cellular Assay in Hela Cells Stimulated with IFNγ; type: cell-based; conditions: Hela cells stimulated with IFNγ 100 ng/mL; read-out: IDO1 HELA Cell Assay, IC50
Procedure: IDO1 Cellular Assay in Hela Cells Stimulated with IFNγ
Hela cells were cultured in complete Hela culture medium (90% EMEM, 10% heat-inactivated fetal bovine serum) and expanded to about 1×10^9 cells. The cells were then collected and frozen down at 10×10^6 cells/vial in 1 mL frozen medium (90% complete Hela culture medium, 10% DMSO)
Frozen Hela cells were thawed and transferred into Hela assay medium (99% complete Hela culture medium, 1% Pen/Strep) with 20 mL medium/vial of cells. The cells were spun down at 250 g in a table top centrifuge for 5 min and suspended in same volume of Hela assay medium. The cells were then counted and adjusted to a density of 2×10^5 cells/ml in Hela assay medium. Sterile L-tryptophan were added to the cells with final concentration of 300 uM L-tryptophan. A small aliquot (2 mL/plate) of Hela cells were set aside and were not treated with IFNγ, to serve as the Max-E control. The rest of Hela cells were added with sterile IFNγ (Cat #285-IF, R & D systems) with a final concentration of 100 ng/mL.
Hela cells with and without IFNγ were dispensed to the respective wells of 384-well assay plates containing the compounds. The plates were incubated for about 48 hours at a 37° C., 5% CO2 incubator. […] The plates were centrifuged for 1 min at 200×g. The resulting fluorescence was measured in a Spectramax plate reader (Molecular Devices) with a 400 nm excitation filter and a 510 nm emission filter.

[3] = read-out: IDO1 Enzyme Assay, IC50

T1 sequence (P14902 whole entry): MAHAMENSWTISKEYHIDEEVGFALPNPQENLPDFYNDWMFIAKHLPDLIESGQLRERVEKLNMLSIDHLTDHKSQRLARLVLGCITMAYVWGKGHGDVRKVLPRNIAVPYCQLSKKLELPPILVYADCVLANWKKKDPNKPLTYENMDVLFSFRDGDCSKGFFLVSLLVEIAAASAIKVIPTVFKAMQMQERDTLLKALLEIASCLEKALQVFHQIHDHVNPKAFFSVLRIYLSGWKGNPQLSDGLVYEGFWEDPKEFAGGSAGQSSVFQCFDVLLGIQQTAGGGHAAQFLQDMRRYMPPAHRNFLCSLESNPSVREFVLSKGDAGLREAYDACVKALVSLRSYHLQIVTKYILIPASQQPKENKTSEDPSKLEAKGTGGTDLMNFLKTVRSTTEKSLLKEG

Row | Structure (SMILES) | IC50 (IDO1 [1]; IDO1 Enzyme Assay, IC50, nM) | IC50 (IDO1 [2]) | IC50 (IDO1 [1]; [3])
1 | O=C(CSc1nonc1/C(=N/O)Nc1ccc(F)c(Br)c1)NCC(O)CN1CCOCC1 (single isomer, unassigned) [Example 206, 2-((4-(N-(3-bromo-4-fluorophenyl)-N′-hydroxycarbamimidoyl)-1,2,5-oxadiazol-3-yl)thio)-N-(2-hydroxy-3-morpholinopropyl)acetamide] | 39.3 nM | 111 nM | 
2 | O=C(CSc1nonc1/C(=N/O)Nc1ccc(F)c(Br)c1)NCC(O)CN1CCOCC1 (single isomer, unassigned) [Example 207, 2-((4-(N-(3-bromo-4-fluorophenyl)-N′-hydroxycarbamimidoyl)-1,2,5-oxadiazol-3-yl)thio)-N-(2-hydroxy-3-morpholinopropyl)acetamide] | 43.1 nM | 140 nM | 
3 | CC(=O)NCCOc1nonc1/C(=N/O)Nc1ccc(F)c(Br)c1 [Example 5, N-(2-((4-(N-(3-bromo-4-fluorophenyl)-N′-hydroxycarbamimidoyl)-1,2,5-oxadiazol-3-yl)oxy)ethyl)acetamide] |  | 94 nM | 47.6 nM
4 | O=C(COc1nonc1/C(=N/O)Nc1ccc(F)c(Br)c1)NCCO [Example 6, 2-((4-(N-(3-Bromo-4-fluorophenyl)-N′-hydroxycarbamimidoyl)-1,2,5-oxadiazol-3-yl)oxy)-N-(2-hydroxyethyl)acetamide] |  | 144 nM | 44 nM
5 | CC(C)(CO)NC(=O)CSc1nonc1/C(=N/O)Nc1ccc(F)c(Br)c1 [Example 27, 2-((4-(N-(3-bromo-4-fluorophenyl)-N′-hydroxycarbamimidoyl)-1,2,5-oxadiazol-3-yl)thio)-N-(1-hydroxy-2-methylpropan-2-yl)acetamide] |  | 17.6 nM | 29.8 nM
6 | CC(C)(O)CNC(=O)CSc1nonc1/C(=N/O)Nc1ccc(F)c(Br)c1 [Example 28, 2-((4-(N-(3-bromo-4-fluorophenyl)-N′-hydroxycarbamimidoyl)-1,2,5-oxadiazol-3-yl)thio)-N-(2-hydroxy-2-methylpropyl)acetamide] |  | 65.9 nM | 38 nM
7 | O=S1(=O)NC[C@H](CSc2nonc2/C(=N/O)Nc2ccc(F)c(Cl)c2)N1 [Example 32, (R)—N-(3-chloro-4-fluorophenyl)-4-(((1,1-dioxido-1,2,5-thiadiazolidin-3-yl)methyl)thio)-N′-hydroxy-1,2,5-oxadiazole-3-carboximidamide] |  | 13.1 nM | 32 nM
8 | O=S1(=O)NC[C@H](CSc2nonc2/C(=N/O)Nc2ccc(F)c(Br)c2)N1 [Example 33, (R)—N-(3-bromo-4-fluorophenyl)-4-(((1,1-dioxido-1,2,5-thiadiazolidin-3-yl)methyl)thio)-N′-hydroxy-1,2,5-oxadiazole-3-carboximidamide] |  | 26.3 nM | 53.5 nM
9 | CC(C)(O)[C@@H](O)CSc1nonc1C(=NO)Nc1ccc(F)c(C#N)c1 [Example 38, (R)—N-(3-cyano-4-fluorophenyl)-4-((2,3-dihydroxy-3-methylbutyl)thio)-N′-hydroxy-1,2,5-oxadiazole-3-carboximidamide] |  | 118 nM | 144 nM
10 | CC(C)(O)[C@H](O)CSc1nonc1C(=NO)Nc1ccc(F)c(C#N)c1 [Example 39, (S)—N-(3-cyano-4-fluorophenyl)-4-((2,3-dihydroxy-3-methylbutyl)thio)-N′-hydroxy-1,2,5-oxadiazole-3-carboximidamide] |  | 87.6 nM | 118 nM
11 | O=c1cc(C(F)(F)F)cc(CSc2nonc2/C(=N/O)Nc2ccc(F)c(Br)c2)[nH]1 [Example 88, N-(3-bromo-4-fluorophenyl)-N′-hydroxy-4-({[6-oxo-4-(trifluoromethyl)-1,6-dihydropyridin-2-yl]methyl}sulfanyl)-1,2,5-oxadiazole-3-carboximidamide] |  | 174 nM | 173 nM
12 | O=c1c(NCCSc2nonc2/C(=N/O)Nc2ccc(F)c(Br)c2)c(NCC2CC2)c1=O [Example 89, N-(3-bromo-4-fluorophenyl)-4-{[2-({2-[(cyclopropylmethyl)amino]-3,4-dioxocyclobut-1-en-1-yl}amino)ethyl]sulfanyl}-N′-hydroxy-1,2,5-oxadiazole-3-carboximidamide] |  |  | 39 nM
13 | O=c1c(NCCO)c(NCCSc2nonc2/C(=N/O)Nc2ccc(F)c(Br)c2)c1=O [Example 90, N-(3-bromo-4-fluorophenyl)-N′-hydroxy-4-{[2-({2-[(2-hydroxyethyl)amino]-3,4-dioxocyclobut-1-en-1-yl}amino)ethyl]sulfanyl}-1,2,5-oxadiazole-3-carboximidamide] |  |  | 29.3 nM
14 | O=C(CSc1nonc1C(=NO)Nc1ccc(F)c(Br)c1)N1CCC[C@H]1CO [Example 134, N-(3-bromo-4-fluorophenyl)-N′-hydroxy-4-({2-[(2S)-2-(hydroxymethyl)pyrrolidin-1-yl]-2-oxoethyl}sulfanyl)-1,2,5-oxadiazole-3-carboximidamide] | 120 nM |  | 
15 | O=C(CSc1nonc1C(=NO)Nc1ccc(F)c(Br)c1)N1CCC[C@@H]1CO [Example 135, N-(3-bromo-4-fluorophenyl)-N′-hydroxy-4-({2-[(2R)-2-(hydroxymethyl)pyrrolidin-1-yl]-2-oxoethyl}sulfanyl)-1,2,5-oxadiazole-3-carboximidamide] | 106 nM |  | 
16 | O=C(CSc1nonc1C(=NO)Nc1ccc(F)c(Br)c1)N1CCCC1 [Example 136, N-(3-bromo-4-fluorophenyl)-N′-hydroxy-4-[(2-oxo-2-pyrrolidin-1-ylethyl)sulfanyl]-1,2,5-oxadiazole-3-carboximidamide] | 112 nM |  | 
17 | O=C(CSc1nonc1C(=NO)Nc1ccc(F)c(Br)c1)NCCF [Example 137, 2-({4-[N-(3-bromo-4-fluorophenyl)-N′-hydroxycarbamimidoyl]-1,2,5-oxadiazol-3-yl}sulfanyl)-N-(2-fluoroethyl)acetamide] | 34.9 nM |  | 
18 | O=C(CSc1nonc1/C(=N/O)Nc1ccc(F)c(Br)c1)N1CCOCC1 [Example 193, N-(3-bromo-4-fluorophenyl)-N′-hydroxy-4-[(2-morpholin-4-yl-2-oxoethyl)sulfanyl]-1,2,5-oxadiazole-3-carboximidamide] |  | 143 nM | 73.8 nM
19 | NS(=O)(=O)N[C@H](CO)CSc1nonc1/C(=N/O)Nc1ccc(F)c(Br)c1 [Example 194, N-(3-bromo-4-fluorophenyl)-N′-hydroxy-4-{[(2R)-3-hydroxy-2-(sulfamoylamino)propyl]sulfanyl}-1,2,5-oxadiazole-3-carboximidamide] |  | 47.1 nM | 51 nM
20 | O=C(CSc1nonc1/C(=N/O)Nc1ccc(F)c(Br)c1)N1C[C@@H](O)[C@@H](O)C1 [Example 195, N-(3-bromo-4-fluorophenyl)-4-((2-((3S,4R)-3,4-dihydroxypyrrolidin-1-yl)-2-oxoethyl)thio)-N′-hydroxy-1,2,5-oxadiazole-3-carboximidamide] |  | 342 nM | 92.5 nM
21 | O=C(CSc1nonc1/C(=N/O)Nc1ccc(F)c(Br)c1)N1CC[C@H](O)[C@@H](O)C1 [Example 196, N-(3-bromo-4-fluorophenyl)-4-((2-((3S,4S)-3,4-dihydroxypiperidin-1-yl)-2-oxoethyl)thio)-N′-hydroxy-1,2,5-oxadiazole-3-carboximidamide] |  | 132 nM | 62.3 nM
22 | C[C@H](CO)NC(=O)CSc1nonc1/C(=N/O)Nc1ccc(F)c(Br)c1 [Example 197, (R)-2-((4-(N-(3-bromo-4-fluorophenyl)-N′-hydroxycarbamimidoyl)-1,2,5-oxadiazol-3-yl)thio)-N-(1-hydroxypropan-2-yl)acetamide] |  | 15.3 nM | 44.9 nM
23 | O=C(CSc1nonc1/C(=N/O)Nc1ccc(F)c(Br)c1)N[C@H]1CCOC[C@H]1O [Example 198, 2-((4-(N-(3-bromo-4-fluorophenyl)-N′-hydroxycarbamimidoyl)-1,2,5-oxadiazol-3-yl)thio)-N-((3S,4S)-3-hydroxytetrahydro-2H-pyran-4-yl)acetamide] |  | 149 nM | 56 nM
24 | CNS(=O)(=O)NC(=O)CSc1nonc1/C(=N/O)Nc1ccc(F)c(Br)c1 [Example 199, 2-((4-(N-(3-bromo-4-fluorophenyl)-N′-hydroxycarbamimidoyl)-1,2,5-oxadiazol-3-yl)thio)-N-(N-methylsulfamoyl)acetamide] |  | 508 nM | 57.8 nM
25 | C[C@H](O)CNC(=O)CSc1nonc1/C(=N/O)Nc1ccc(F)c(Br)c1 [Example 200, (S)-2-((4-(N-(3-bromo-4-fluorophenyl)-N′-hydroxycarbamimidoyl)-1,2,5-oxadiazol-3-yl)thio)-N-(2-hydroxypropyl)acetamide] |  | 14.9 nM | 29.9 nM
26 | C[C@@H](O)CNC(=O)CSc1nonc1/C(=N/O)Nc1ccc(F)c(Br)c1 [Example 201, (R)-2-((4-(N-(3-bromo-4-fluorophenyl)-N′-hydroxycarbamimidoyl)-1,2,5-oxadiazol-3-yl)thio)-N-(2-hydroxypropyl)acetamide] |  | 26.8 nM | 22.4 nM
